Source: paper PMC8080595, “Discovery of a novel RORγ antagonist with skin-restricted exposure for topical treatment of mild to moderate psoriasis” (Scientific Reports, 2021)

Columns and labels:
[1] = Liver microsomal stability, rat; assay type: in vitro ADME; conditions: liver microsomes, pH 7.4, read-out: Liver microsomal stability, t1/2, Rat
Protocol: (§1) The compound was mixed with 0.5 mg/ml human liver microsome (Thermal Fisher) at a final concentration of 1 µM in 100 mM potassium phosphate buffer, pH 7.4. The reactions were initiated by the addition of 1 mM NADPH. Samples in duplicate were incubated at 37 °C with mixing. 100 µL aliquots were transferred after 0, 5, 10, 30, 45, 60 minutes to a new tube with 300 µL acetonitrile, incubated on ice for 30 minutes, centrifuged at 1800×g at 4 °C for 10 minutes. The supernatants were transferred to glass vials subjected to LC/MS analysis. Peak areas were measured to calculate half-life according to the formula t1/2 = − 0.693/slope of linear regression analysis of ln [concentration] versus incubation time. Similar methods were applied to access mouse and rat liver microsomal stability of the compounds.

[2] = Dermal PK, miniature pig; assay type: in vivo, Bama miniature pig; conditions: for Exposure in plasma: topical
Protocol: Similar procedures were carried out for dermal PK of female SD rats and female Bama miniature pigs. Briefly, each area of topical application was 4 cm × 9 cm for SD rats and 6 cm × 6 cm for miniature pigs. After decontamination, the biopsy sections of SD rats were tape stripped for five times and those of miniature pig for twenty-five times, respectively. Blood and dorsal skin tissues of the animals were collected and analyzed for the compounds via LC/MS. The experimental protocol used in this study was approved by the Institutional Animal Care and Use Committees (IACUC). The experiments were conducted in accordance with the Guiding Principles for the Care and Use of Laboratory Animals and complied with the ARRIVE guidelines.

[3] = target: T1, RORα (Homo sapiens, UniProt P35398); assay: RORα luciferase reporter assay; assay type: cell-based; conditions: up to 10,000 nM, n = 3
T1 sequence (P35398 272-523 limits assumed): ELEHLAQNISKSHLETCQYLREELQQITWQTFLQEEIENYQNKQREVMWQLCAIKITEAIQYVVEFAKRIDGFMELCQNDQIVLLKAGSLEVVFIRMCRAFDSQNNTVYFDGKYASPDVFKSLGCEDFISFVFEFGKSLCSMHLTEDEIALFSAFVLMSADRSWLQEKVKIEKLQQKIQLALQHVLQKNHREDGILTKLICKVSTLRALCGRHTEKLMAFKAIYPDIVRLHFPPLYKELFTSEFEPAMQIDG
Protocol: We next assessed the selectivity of SHR168442 against another ROR family member, RORα, using nuclear reporter assay. […] ATRA (all trans-retinoic acid) was used as a positive control in the assay.
Cell-based luciferase reporter assays for RORα and RORγ (Indigo Biosciences) were performed according to the manufacturer’s protocol.

[4] = Oral PK in SD rats; assay type: in vivo; conditions: male, rat, plasma, 2 mg/kg oral
Protocol: Compounds were dissolved in 5% DMSO, 5% tween 80 and then added 90% saline. Male SD rats were dosed with the compound via oral (2 mg/kg or 5 mg/kg) routes, respectively after fasting overnight. Blood of the animals were collected at indicated time post dosing. Blood samples were then prepared for plasma and analyzed for the compounds using validated LC/MS assays. The experimental protocol used in this study was approved by IACUC. The experiments were conducted in accordance with the Guiding Principles for the Care and Use of Laboratory Animals and complied with the ARRIVE guidelines.

[5] = target: T2, hERG (Homo sapiens, UniProt Q12809); assay: SAFETYscan47 Ion Channel; assay type: cell-based; conditions: Blocker; 3 µM
T2 construct: purchased DiscoverX (Eurofins) SAFETYscan47
T2 sequence (Q12809 whole entry): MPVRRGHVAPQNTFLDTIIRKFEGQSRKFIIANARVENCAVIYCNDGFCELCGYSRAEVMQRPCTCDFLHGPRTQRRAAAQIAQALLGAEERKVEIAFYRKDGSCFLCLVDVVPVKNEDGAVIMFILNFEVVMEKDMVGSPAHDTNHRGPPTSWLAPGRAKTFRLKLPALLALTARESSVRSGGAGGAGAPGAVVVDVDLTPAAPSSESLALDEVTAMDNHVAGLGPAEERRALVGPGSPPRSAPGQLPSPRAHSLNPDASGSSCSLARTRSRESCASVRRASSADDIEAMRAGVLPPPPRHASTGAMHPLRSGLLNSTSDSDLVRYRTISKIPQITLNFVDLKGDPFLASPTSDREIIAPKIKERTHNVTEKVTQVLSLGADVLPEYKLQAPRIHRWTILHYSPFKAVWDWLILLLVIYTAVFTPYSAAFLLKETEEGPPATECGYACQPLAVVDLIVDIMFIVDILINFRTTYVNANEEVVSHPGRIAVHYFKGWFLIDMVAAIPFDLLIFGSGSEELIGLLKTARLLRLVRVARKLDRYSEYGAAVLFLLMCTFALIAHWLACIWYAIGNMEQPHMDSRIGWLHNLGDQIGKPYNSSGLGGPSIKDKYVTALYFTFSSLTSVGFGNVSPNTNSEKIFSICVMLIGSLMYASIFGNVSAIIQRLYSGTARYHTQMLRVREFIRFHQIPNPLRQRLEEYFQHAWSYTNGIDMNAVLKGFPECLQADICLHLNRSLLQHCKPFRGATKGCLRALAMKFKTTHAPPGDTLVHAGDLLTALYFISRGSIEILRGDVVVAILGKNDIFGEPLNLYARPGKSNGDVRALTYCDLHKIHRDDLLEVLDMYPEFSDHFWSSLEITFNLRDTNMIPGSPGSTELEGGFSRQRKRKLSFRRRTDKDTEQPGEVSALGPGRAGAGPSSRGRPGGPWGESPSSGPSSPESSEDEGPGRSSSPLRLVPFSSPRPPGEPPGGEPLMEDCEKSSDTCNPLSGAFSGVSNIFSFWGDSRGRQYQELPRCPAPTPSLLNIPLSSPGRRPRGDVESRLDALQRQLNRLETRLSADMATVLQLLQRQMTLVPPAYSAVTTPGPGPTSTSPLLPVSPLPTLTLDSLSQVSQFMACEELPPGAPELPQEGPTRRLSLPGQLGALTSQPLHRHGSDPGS
Protocol: (§2) To further profile any off-target activity, we counter-screened SHR168442 in SAFETYscan47 panel, compiled by DiscoverX based on the recommendation by major pharmaceutical companies. SHR168442 was screened at 3 µM in duplicates.

[6] = system: GABAA; assay: SAFETYscan47 Ion Channel; assay type: cell-based; conditions: 3 µM
Protocol: as §2

[7] = system: IMQ-induced psoriasis-like skin inflammation mice; assay: IMQ-induced psoriasis-like skin inflammation model, topical treatment; assay type: in vivo, BALB/c mice
Protocol: At the end of the study, the mouse plasma and diseased back skin were collected 3 h after topical application for PK analysis.
Psoriasis was induced by topical application of IMQ cream on the shaved dorsal skin as described by Leslie van der Fits et al.[18]. SHR168442 in Vaseline (n = 10 per group) was treated once a day (QD) from 3 days prior to day 1, and then twice a day (BID) from day 1 to day 6. The animal was sacrificed at 3 h after the first dose in the morning of day 7. Erythema, scaling, and thickness of the back skin were scored independently daily on a scale from 0 to 4. Blood and back skin tissues from the study were collected at 3 h (n = 4) post dosing in the morning of […]. The plasma and skin tissues after tape stripping were analyzed for Compound 1 as described above. The in-life portion of the study was carried out at Washington Biotechnology (Baltimore, MD). The housing conditions and in-life procedures were approved by IACUC. The experiments were conducted in accordance with the Guiding Principles for the Care and Use of Laboratory Animals and complied with the ARRIVE guidelines.

[8] = system: IL-17 secretion in mouse splenocyte; assay: Mouse IL-17 production assay using mouse splenocyte; assay type: cell-based; conditions: Th17 differentiation, 72 h, n = 3, read-out: inhibition of secretion of IL-17 in mouse splenocyte, average IC50
Protocol: To evaluate the impact of SHR168442 on IL-17 secretion in mouse cells, the mouse Th17 cell differentiation kit from R&D Systems was used to polarize the mouse spleen cells. Differentiation of Th17 cells in mouse splenocyte for 72 h was confirmed by secretion of IL-17 in culture supernatant, 93 pg/mL in average (2.7 pg/mL without differentiation), a 34-fold increase of IL-17 secretion.
Mouse splenocytes (Zenbio) were stimulated by Mouse Th17 Differentiation Media (R&D Systems) according to the manufacturer’s protocol. On day 5, compounds were added and then incubated for 72 h, and IL-17 in the supernatant was measured using IL-17A homodimer (mouse) AlphaLISA detection kit (Perkin Elmer) according to the manufacturer’s protocol.

[9] = Liver microsomal stability, mouse; assay type: in vitro ADME; conditions: liver microsomes, pH 7.4, read-out: Liver microsomal stability, t1/2, Mouse
Protocol: as §1

For `CCS(=O)(=O)c1ccc([C@H](CCO)c2nc3c(Cl)c(N4CCC(F)(F)CC4)c(Cl)cc3[nH]2)cc1` [SHR168442, (S)-3-(4,6-dichloro-5-(4,4-difluoropiperidin-1-yl)-1H-benzo[d]imidazol-2-yl)-3-(4-(ethylsulfonyl)phenyl)propan-1-ol], the half-life at 1 µM [1] was 8.6 min, the Exposure in plasma ([2]; 2% in Vaseline, 3 h) was “blq (below limit of quantitation (< 6 ng/mL))” and the Exposure in plasma ([2]; 2% in Vaseline, 6 h) was “blq (below limit of quantitation (< 6 ng/mL))”. For the same compound, the Exposure in plasma ([2]; 2% in Vaseline, 24 h) was “blq (below limit of quantitation (< 6 ng/mL))”, the Exposure in plasma ([2]; 8% in Vaseline, 3 h) was “blq (below limit of quantitation (< 6 ng/mL))” and the Exposure in plasma ([2]; 8% in Vaseline, 6 h) was “blq (below limit of quantitation (< 6 ng/mL))”. For the same compound, the Exposure in plasma ([2]; 8% in Vaseline, 24 h) was “blq (below limit of quantitation (< 6 ng/mL))”, the “systemic exposures in miniature pigs” value ([2]; female, Bama, pig, in vivo) was less than 6 ng/mL and the “effect on RORα reporter activity” value [3] was “little effect”. It also gave an AUC ([4]; read-out: Exposure in SD Rat, AUC) of 59 ng·h/mL, a Cmax ([4]; read-out: Exposure in SD Rat, Cmax) of 9.5 ng/mL and a half-life ([4]; read-out: Exposure in SD Rat, t1/2 (converted)) of 372 min. For the same compound, the “% Response Average” value [5] was 4.9%, the “% Response Replicate 1” value [5] was 6.5% and the “% Response Replicate 2” value [5] was 3.2%. For the same compound, the “% Response Average” value ([6]; Blocker) was 7.4%, the “% Response Replicate 1” value ([6]; Blocker) was 4.6% and the “% Response Replicate 2” value ([6]; Blocker) was 10.1%. For the same compound, the “% Response Average” value ([6]; Opener) was 2.5%, the “% Response Replicate 1” value ([6]; Opener) was 3.2% and the “% Response Replicate 2” value ([6]; Opener) was 1.9%. For the same compound, the “cumulative scores (scaling, erythema, thickness)” value ([7]; 2%, 4% and 8% in Vaseline topical) was “clear dose-dependent reduction”, the scores of erythema ([7]; 4% and 8% topical, day 6, versus vehicle control) was “significantly reduced” and the score of scaling ([7]; 8% in Vaseline topical, days 4 to 6, scale 0 to 4) was less than 1.0. For the same compound, the “exposures in diseased skin and plasma” value ([7]; 3 h after topical application, all treatments) was “high in skin and low in plasma”, the body weight ([7]; all treatment groups) was “no significant body weight loss” and the IC50 [8] was 54 ± 12 nM. For the same compound, the half-life at 1 µM [9] was 6.2 min.
